Experimental data taken from US9790169B2, “IDO inhibitors” (BRISTOL-MYERS SQUIBB COMPANY, priority 2015, dated 2017).

biological target: human IDO1 (Homo sapiens, UniProt P14902); experiment: Assessment of human IDO-1 inhibitory activity in Hela cells (Interferon-gamma stimulated HeLa cells, Ehrlich reagent, absorbance 490 nm); type: cell-based; parameters: endogenous in cells; host or cells: HeLa cells stimulated with interferon-gamma; settings: Hela Human IDO-1 cellular assay
In short: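 HeLa cells pre-incubated with compound 1 h at 37 °C, then stimulated with human IFN-γ (10 ng/ml final) or murine IFN-γ (5 ng/ml final) for 18 h. Kynurenine read with Ehrlich reagent at 490 nm after TCA (3%) and 50 °C treatment; IC50 normalized to unstimulated (100%) and IFN-γ-only (0%) wells.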

human IDO1, sequence (P14902 whole entry): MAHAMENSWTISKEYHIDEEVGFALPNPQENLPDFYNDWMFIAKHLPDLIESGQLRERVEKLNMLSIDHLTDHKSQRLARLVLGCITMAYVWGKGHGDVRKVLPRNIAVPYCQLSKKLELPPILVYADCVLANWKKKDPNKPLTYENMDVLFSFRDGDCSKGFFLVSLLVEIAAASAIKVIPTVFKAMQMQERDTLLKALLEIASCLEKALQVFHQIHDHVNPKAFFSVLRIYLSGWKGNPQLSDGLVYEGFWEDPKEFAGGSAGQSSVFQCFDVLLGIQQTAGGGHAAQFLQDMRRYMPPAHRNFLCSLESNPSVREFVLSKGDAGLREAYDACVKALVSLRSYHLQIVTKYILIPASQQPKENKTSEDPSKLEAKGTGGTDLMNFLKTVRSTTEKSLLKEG

Q: For CCc1ccc(Nc2cc(C(COC)CC(=O)O)cc(F)c2N(CC(C)C)CC(C)C)cc1 (single isomer, unassigned) [Example 922, 3-(4-(diisobutylamino)-3-((4-ethylphenyl)amino)-5-fluorophenyl)-4-methoxybutanoic acid], which IC50 is on record?
A: < 50 nM

Q: How did the IC50 turn out when CC[C@H](CC(=O)O)c1ccc(N(CC)C2CCOCC2)c(Nc2cnc(C)nc2)c1 (single isomer, unassigned) [Example 1363] was run?
A: < 5 nM

Q: With CC[C@@H](CC(=O)O)c1ccc(N(CC2CC2)CC(C)(C)O)c(Nc2ccc(Cl)cc2)c1 (single isomer, unassigned) [Example 267] as the compound, how does the IC50 read?
A: < 5 nM

Q: Which IC50 does the source give for CCCN(c1ccc(C(C)(C)CC(=O)O)cc1Nc1cnc(OCC)nc1)C1CCS(=O)(=O)CC1 [Example 188, 3-(4-((1,1-dioxidotetrahydro-2H-thiopyran-4-yl)(propyl)amino)-3-((2-ethoxypyrimidin-5-yl)amino)phenyl)-3-methylbutanoic acid] here?
A: > 50 nM

Q: With CCCN(c1ccc([C@@H](CC)CC(=O)O)cc1Nc1ccc(OC)nc1)C1CCOCC1 (single isomer, unassigned) [Example 542] as the compound, how does the IC50 read?
A: < 5 nM

Q: With COCCN(c1ccc(C(COC)CC(=O)O)cc1NC(=O)Nc1ccc(C)cc1)C1CCOCC1 (single isomer, unassigned) [Example 261 Enantiomer 1, 4-Methoxy-3-(4-((2-methoxyethyl)(tetrahydro-2H-pyran-4-yl)amino)-3-(3-(p-tolyl)ureido)phenyl)butanoic acid] as the compound, how does the IC50 read?
A: > 50 nM

Q: For CC[C@@H](CC(=O)O)c1ccc(N(CC)C2CCOCC2)c(Nc2ccc(N(C)C)nc2)c1 (single isomer, unassigned) [Example 463], which IC50 is on record?
A: > 50 nM

Q: For CCC(CC(=O)O)c1ccc(N(CCOC)C2CCOCC2)c(NC(=O)Nc2ccc(C)cc2)c1 (single isomer, unassigned) [Example 1264 E1, 3-(4-((2-Methoxyethyl)(tetrahydro-2H-pyran-4-yl)amino)-3-(3-(p-tolyl)ureido)phenyl)pentanoic acid], which IC50 is on record?
A: > 50 nM

Q: How did the IC50 turn out when CCN(c1ccc([C@@H](COC)CC(=O)O)cc1Nc1ccc(C#N)c(C)n1)C1CCOCC1 (single isomer, unassigned) [Example 382] was run?
A: < 50 nM

Q: With CCC(CC(=O)O)c1ccc(N(CCOC)C2CCOCC2)c(Nc2ccc(Cl)cc2)c1 (single isomer, unassigned) [Example 1257 E1, 3-(3-((4-Chlorophenyl)amino)-4-((2-methoxyethyl)(tetrahydro-2H-pyran-4-yl)amino)phenyl)pentanoic acid] as the compound, how does the IC50 read?
A: < 5 nM

Q: Which IC50 does the source give for CCCN(c1ccc(C(COC)CC(=O)O)cc1Nc1ccc(Cl)cc1)C1CCS(=O)(=O)CC1 (single isomer, unassigned) [Example 185, 3-(3-((4-chlorophenyl)amino)-4-((1,1-dioxidotetrahydro-2H-thiopyran-4-yl)(propyl)amino)phenyl)-4-methoxybutanoic acid] here?
A: < 5 nM

Q: With CCC(CC(=O)O)c1ccc(N(CC)C2CCS(=O)(=O)CC2)c(Nc2ccc(Cl)cc2)c1 (single isomer, unassigned) [Example 334 Enantiomer 1, 3-(3-((4-Chlorophenyl)amino)-4-((1,1-dioxidotetrahydro-2H-thiopyran-4-yl)(ethyl)amino)phenyl)pentanoic acid] as the compound, how does the IC50 read?
A: < 5 nM

Q: With CCN(c1ccc([C@@H](COC)CC(=O)O)cc1Nc1ccc(C(N)=O)cc1)C1CCOCC1 (single isomer, unassigned) [Example 385] as the compound, how does the IC50 read?
A: > 50 nM

Q: Which IC50 does the source give for CCOc1ncc(Nc2cc([C@H](CC(=O)O)C(F)(F)F)ccc2N(CC)C2CCOCC2)cn1 [Example 598, (S)-3-(3-((2-Ethoxypyrimidin-5-yl)amino)-4-(ethyl(tetrahydro-2H-pyran-4-yl)amino)phenyl)-4,4,4-trifluorobutanoic acid] here?
A: < 50 nM

Q: How did the IC50 turn out when CCOc1ccc(Nc2cc(C(C)CC(=O)O)ccc2N(CC)C2CCOCC2)nn1 (single isomer, unassigned) [Example 624, 3-(3-((6-ethoxypyridazin-3-yl)amino)-4-(ethyl (tetrahydro-2H-pyran-4-yl)amino)phenyl)butanoic acid] was run?
A: > 50 nM

Q: Which IC50 does the source give for CCN(c1ccc(C(COC)CC(=O)O)cc1Nc1ccc(Cl)cc1)C1CCS(=O)(=O)CC1 (single isomer, unassigned) [Example 174, 3-(3-((4-chlorophenyl)amino)-4-((1,1-dioxidotetrahydro-2H-thiopyran-4-yl)(ethyl)amino)phenyl)-4-methoxybutanoic acid] here?
A: < 50 nM

Q: COCC(CC(=O)O)c1ccc(N2C[C@@H]3C[C@H]2CN3C(=O)OC(C)(C)C)c(Nc2ccc(C#N)cc2)c1 (single isomer, unassigned) [Example 451 Diastereomer 1] was tested. Which IC50 did it give?
A: < 50 nM

Q: With CCN(c1ccc(C(CC(=O)O)C2CC2)cc1NC(=O)Nc1ccc(C#N)cc1)C1CCOCC1 (single isomer, unassigned) [Example 255 Enantiomer 1, 3-(3-(3-(4-Cyanophenyl)ureido)-4-(ethyl(tetrahydro-2H-pyran-4-yl)amino)phenyl)-3-cyclopropylpropanoic acid] as the compound, how does the IC50 read?
A: > 50 nM

Q: How did the IC50 turn out when CCOc1ncc(Nc2cc([C@H](CC)CC#N)ccc2N(CC)C2CCOCC2)cn1 [Example 1333, (R)-3-(3-((2-Ethoxypyrimidin-5-yl)amino)-4-(ethyl(tetrahydro-2H-pyran-4-yl)amino)phenyl)pentanenitrile] was run?
A: > 50 nM

Q: With CCOc1ccc(Nc2cc(C(COC)CC(=O)O)cc(F)c2N(CC(C)C)CC(C)C)cc1 (single isomer, unassigned) [Example 923, 3-(4-(diisobutylamino)-3-((4-ethoxyphenyl)amino)-5-fluorophenyl)-4-methoxybutanoic acid] as the compound, how does the IC50 read?
A: < 50 nM

Q: With CCc1ccc(Nc2cc(C(CC)CC(=O)O)ccc2N2CCOC[C@H]2C(C)C)cc1 (single isomer, unassigned) [Example 890] as the compound, how does the IC50 read?
A: < 50 nM

Q: For CCC(CC(=O)O)c1cnc(N(CC)C2CCOCC2)c(NC(=O)Nc2ccc(C)cc2)c1 (racemic) [Example 1377, (+/−)-3-(6-(Ethyl(tetrahydro-2H-pyran-4-yl)amino)-5-(3-(p-tolyl)ureido)pyridin-3-yl)pentanoic acid], which IC50 is on record?
A: < 50 nM

Q: How did the IC50 turn out when CCCN(c1ccc([C@H](CC)CC(=O)O)cc1Nc1ccc2nc(C)sc2c1)C1CCOCC1 (single isomer, unassigned) [Example 548] was run?
A: < 50 nM

Q: For COCC(CC(=O)O)c1ccc(N(C)C2CCOCC2)c(Nc2ccc(Cl)cc2)c1 (single isomer, unassigned) [Example 884, 3-(3-((4-chlorophenyl)amino)-4-(methyl(tetrahydro-2H-pyran-4-yl)amino)phenyl)-4-methoxybutanoic acid], which IC50 is on record?
A: < 5 nM

Q: For CCCN(c1ccc([C@H](CC)CC(=O)O)cc1Nc1ccc(Cl)cc1)C1CCOCC1 (single isomer, unassigned) [Example 552], which IC50 is on record?
A: < 5 nM

Q: How did the IC50 turn out when CCOc1ncc(Nc2cc(C(CC)(CC)CC(=O)O)ccc2N(CC)C2CCOCC2)cn1 [Example 29, 3-(3-((2-ethoxypyrimidin-5-yl)amino)-4-(ethyl(tetrahydro-2H-pyran-4-yl)amino)phenyl)-3-ethylpentanoic acid] was run?
A: < 5 nM

Q: CCOc1ccc(Nc2cc([C@@H](CC)CC(=O)O)ccc2N(CC)C2CCOCC2)cn1 (single isomer, unassigned) [Example 466] was tested. Which IC50 did it give?
A: < 5 nM

Q: For CCC1COCCN1c1ccc([C@H](COC)CC(=O)O)cc1Nc1ccc(C#N)cc1 (single isomer, unassigned) [Example 1303], which IC50 is on record?
A: < 50 nM

Q: How did the IC50 turn out when CCC(CC(=O)O)c1ccc(N(CC)C2CCOC2)c(NC(=O)Nc2ccc(Cl)cc2F)c1 (single isomer, unassigned) [948 D2] was run?
A: < 50 nM

Q: CCC1COCCN1c1ccc([C@H](COC)CC(=O)O)cc1Nc1ccc(C#N)cn1 (single isomer, unassigned) [Example 1289] was tested. Which IC50 did it give?
A: > 50 nM

Q: With COCC(CC(=O)O)c1ccc(N2CCOC[C@@H]2C(C)C)c(Nc2ccc(Cl)cc2)c1 (single isomer, unassigned) [Example 934] as the compound, how does the IC50 read?
A: > 50 nM

Q: For CCC1COCCN1c1ccc([C@@H](COC)CC(=O)O)cc1Nc1ccc(C#N)cc1 (single isomer, unassigned) [Example 1295], which IC50 is on record?
A: < 50 nM

Q: For COCC(CC(=O)O)c1ccc(N2CCOC(C)(C)C2)c(NC(=O)Nc2ccc(Cl)cc2F)c1 (single isomer, unassigned) [Example 1318 E1, 3-(3-(3-(4-Chloro-2-fluorophenyl)ureido)-4-(2,2-dimethylmorpholino)phenyl)-4-methoxybutanoic acid], which IC50 is on record?
A: > 50 nM

Q: Which IC50 does the source give for CCOc1ncc(Nc2cc(C(CC)CC(=O)O)ccc2N(CCOC)C2CCOCC2)cn1 (single isomer, unassigned) [Example 1260, 3-(3-((2-ethoxypyrimidin-5-yl)amino)-4-((2-methoxyethyl)(tetrahydro-2H-pyran-4-yl)amino)phenyl)pentanoic acid] here?
A: < 50 nM

Q: Which IC50 does the source give for CCCN(c1ccc(C(CC)CC(=O)O)cc1Nc1ccc(C#N)cc1)C1CCS(=O)(=O)CC1 (single isomer, unassigned) [Example 12 Enantiomer 1, 3-(3-((4-Cyanophenyl)amino)-4-((1,1-dioxidotetrahydro-2H-thiopyran-4-yl)(propyl)amino)phenyl)pentanoic acid] here?
A: < 5 nM

Q: CCN(c1cc(F)c([C@@H](COC)CC(=O)O)cc1NC(=O)Nc1ccc(C#N)cc1)C1CCOCC1 (single isomer, unassigned) [Example 849, 3-(5-(3-(4-Cyanophenyl)ureido)-4-(ethyl(tetrahydro-2H-pyran-4-yl)amino)-2-fluorophenyl)-4-methoxybutanoic acid] was tested. Which IC50 did it give?
A: > 50 nM

Q: For CCN(c1ccc([C@H](CC(=O)O)C(F)(F)F)cc1Nc1cnc(OC)nc1)C1CCOCC1 [Example 599, (S)-3-(4-(ethyl(tetrahydro-2H-pyran-4-yl)amino)-3-((2-methoxypyrimidin-5-yl)amino)phenyl)-4,4,4-trifluorobutanoic acid], which IC50 is on record?
A: < 50 nM

Q: With CCC(CC(=O)O)c1cc(Nc2ccc(Cl)cc2)c(N(CC)C2CCOCC2)cc1F (single isomer, unassigned) [Example 856, 3-(5-((4-Chlorophenyl)amino)-4-(ethyl(tetrahydro-2H-pyran-4-yl)amino)-2-fluorophenyl)pentanoic acid] as the compound, how does the IC50 read?
A: < 5 nM
